In patent US11613533B2, “Compounds useful for inhibiting RET kinase” (Eli Lilly and Company, priority 2020, dated 2023) one finds IC50 data, which are given here for 15 molecules.

The target of assay [1] is T1, wildtype RET kinase (N-terminal GST tagged recombinant human RET cytoplasmic domain, aa 658-end) (Homo sapiens, UniProt P07949).
T1 construct: human RET cytoplasmic domain (aa 658-end); GST (N); purchased Eurofins 14-570M
T1 sequence (P07949 658-1114 limits assumed): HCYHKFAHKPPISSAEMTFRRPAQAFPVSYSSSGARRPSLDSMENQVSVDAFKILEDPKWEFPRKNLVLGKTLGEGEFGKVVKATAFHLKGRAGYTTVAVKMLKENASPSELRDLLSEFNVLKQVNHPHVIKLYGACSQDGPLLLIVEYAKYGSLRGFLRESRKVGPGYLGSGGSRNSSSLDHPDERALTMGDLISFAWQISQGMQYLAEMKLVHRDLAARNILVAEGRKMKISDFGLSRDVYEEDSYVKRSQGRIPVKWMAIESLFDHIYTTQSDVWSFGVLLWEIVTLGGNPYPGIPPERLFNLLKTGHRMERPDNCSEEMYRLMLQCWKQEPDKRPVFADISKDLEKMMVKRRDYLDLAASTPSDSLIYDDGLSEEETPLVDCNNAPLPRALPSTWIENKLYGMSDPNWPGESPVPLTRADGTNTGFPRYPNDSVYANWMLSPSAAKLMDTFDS
Kind of assay: RET enzyme assay (HTRF KinEASE TK), wildtype. It is filed as biochemical. The conditions noted are these: 1 mM ATP, 60 min incubation at 22° C. The protocol: (§1) Assay A: RET Enzyme Assay
(§2) Compounds of formulas I, II, or III are screened for their ability to inhibit wildtype, V804M, and G810S mutant RET kinase using CisBio's HTRF® KinEASE™TK assay technology. N-terminal GST tagged recombinant human RET cytoplasmic domain (aa 658-end) from Eurofins ([…]; Catalog No. 14-570M) or N-terminal GST tagged recombinant human V804M mutant RET cytoplasmic domain (aa 658-end) from Millipore (1.25 nM enzyme; Catalog No. 14-760) or N-Terminal GST-tagged recombinant human G810S (aa-658-end) (1.25 nM Enzyme; produced in insect cells) is incubated with 62.5 nM TK-substrate biotin (CisBio, part of Catalog No. 62TK0PEC) and 1 mM ATP along with test compound (0.4% final DMSO in the assay) in a 1× Cisbio enzymatic buffer consisting of […], 5 mM MgCl2, 0.04% BSA and 0.05% Tween20 in a volume of 10 μL. Compounds are typically prepared in a threefold serial dilution in DMSO and added to the assay to give the appropriate final concentration. After a 40-60 min (40 min for V804M, 60 min for WT and G810S) incubation at 22° C., the reaction is quenched by adding quench solution (10 μL) containing 7.8 nM Streptavidine-XL665 and 0.5×TK-ab-Cryptate in HTRF detection buffer (all from CisBio, part of Cat. No. 62TK0PEC). After a 60-80 min incubation (60 minutes for WT, 80 minutes for V804M and G810S) at 22° C., the extent of reaction is determined using a PHERastar plate reader via HTRF detection at excitation/emission 337/665 nm. Percent of inhibition is calculated with 0% inhibition referring to control conditions containing no compound (0.4% DMSO only) and 100% inhibition represented by conditions containing no enzyme. The % inhibition values are fit to a 4 parameter logistic curve, and the determined IC50 value is defined as the estimated concentration of inhibitor at the inflexion point of the fitted curve.
A general note: In TR-FRET formats the signal depends on donor and acceptor labels being close together.

The target of assay [2] is T2, V804M mutant RET kinase (N-terminal GST tagged recombinant human V804M mutant RET cytoplasmic domain, aa 658-end) (Homo sapiens, UniProt P07949, V804M).
T2 construct: human V804M mutant RET cytoplasmic domain (aa 658-end); GST (N); purchased Millipore 14-760
T2 sequence (P07949 658-1114 V804M limits assumed): T1 sequence (P07949 658-1114 limits assumed) with V147M
Kind of assay: RET enzyme assay (HTRF KinEASE TK), V804M. To be noted: 1 mM ATP, 40 min incubation at 22° C. It is filed as biochemical. The procedure: as §1, §2

Molecules are shown by their SMILES. Changes are numbered by the printed parent chain. Where only a bound is given, the exact number is not on record here.

By IC50 is commonly meant the point on the concentration scale where inhibition reaches its midpoint. As to `CC(C(=O)Nc1cc(C(C)(C)C(F)(F)F)no1)c1ccc(-c2nn(C(C)C)c(N)c2C(N)=O)cc1` (single isomer, unassigned; isomer 1) [Example 17, 5-Amino-1-isopropyl-3-[4-(1-[[3-(1,1,1-trifluoro-2-methylpropan-2-yl)-1,2-oxazol-5-yl]carbamoyl]ethyl)phenyl]pyrazole-4-carboxamide, Isomer 1], the IC50 in assay [1] and in assay [2] was less than 100 nM throughout.
On to `CC(C(=O)Nc1cc(C2(C)CC2)no1)c1ccc(-c2nn(C(C)C)c(N)c2C(N)=O)cc1` (single isomer, unassigned; isomer 1) [Example 35, 5-Amino-1-isopropyl-3-[4-(1-[[3-(1-methylcyclopropyl)-1,2-oxazol-5-yl]carbamoyl]ethyl)phenyl]pyrazole-4-carboxamide, Isomer 1], for which the IC50 in assay [1] and in assay [2] was less than 100 nM each time.
Turning to `CC(C(=O)Nc1cc(CC(C)(C)C)no1)c1ccc(-c2nn(C(C)C)c(N)c2C(N)=O)cc1` (single isomer, unassigned; isomer 1) [Example 1, 5-Amino-3-[4-(1-[[3-(2,2-dimethylpropyl)-1,2-oxazol-5-yl]carbamoyl]ethyl)phenyl]-1-isopropylpyrazole-4-carboxamide, Isomer 1], the IC50 in assay [1] and in assay [2] was less than 100 nM in each case.
Take `CCC(C)(C)c1cc(NC(=O)C(C)c2ccc(-c3nn(C(C)C)c(N)c3C(N)=O)cn2)on1` (single isomer, unassigned; isomer 2) [Example 84, 5-Amino-1-isopropyl-3-[6-[2-[[3-(1,1-dimethylpropyl)isoxazol-5-yl]amino]-1-methyl-2-oxo-ethyl]-3-pyridyl]pyrazole-4-carboxamide, Isomer 2]: the IC50 in assay [1] and in assay [2] was less than 100 nM in each case.
Take `CC(C(=O)Nc1cc(-c2ccc(Cl)cc2Cl)no1)c1ccc(-c2nn(C(C)C)c(N)c2C(N)=O)cc1` (single isomer, unassigned; isomer 1) [Example 45, 5-Amino-3-[4-(1-[[3-(2,4-dichlorophenyl)-1,2-oxazol-5-yl]carbamoyl]ethyl)phenyl]-1-isopropylpyrazole-4-carboxamide, Isomer 1]: the IC50 in assay [1] and in assay [2] was less than 100 nM throughout.
Regarding `CC(C(=O)Nc1cc(C2CC(C)(C)C2)no1)c1ccc(-c2nn(C(C)C)c(N)c2C(N)=O)cc1` (single isomer, unassigned; isomer 1) [Example 98, 5-Amino-3-[4-[2-[[3-(3,3-dimethylcyclobutyl)isoxazol-5-yl]amino]-1-methyl-2-oxo-ethyl]phenyl]-1-isopropyl-pyrazole-4-carboxamide, Isomer 1], the IC50 in assay [1] and in assay [2] was less than 100 nM each time.
As to `CCC(C)(C)c1cc(NC(=O)C(C)c2ccc(-c3nn(C(C)C)c(N)c3C(N)=O)cc2)on1` (single isomer, unassigned; isomer 1) [Example 15, 5-Amino-1-isopropyl-3-[4-(1-[[3-(2-methylbutan-2-yl)-1,2-oxazol-5-yl]carbamoyl]ethyl)phenyl]pyrazole-4-carboxamide, Isomer 1], the IC50 in assay [1] and in assay [2] was less than 100 nM each time.
In the case of `CCC(C)(C)c1cc(NC(=O)C(C)c2ccc(-c3nn(C(C)C)c(N)c3C(N)=O)nc2)no1` (single isomer, unassigned; isomer 2) [Example 66, 5-Amino-1-isopropyl-3-[5-(1-[[5-(2-methylbutan-2-yl)-1,2-oxazol-3-yl]carbamoyl]ethyl)pyridin-2-yl]pyrazole-4-carboxamide, Isomer 2], the IC50 in assay [1] and in assay [2] was less than 100 nM each time.
In the case of `CC(C(=O)Nc1cc(C(C)(C)C(C)(F)F)on1)c1ccc(-c2nn(C(C)C)c(N)c2C(N)=O)cc1` (single isomer, unassigned; isomer 2) [Example 76, 5-Amino-3-[4-(1-[[5-(3,3-difluoro-2-methylbutan-2-yl)-1,2-oxazol-3-yl]carbamoyl]ethyl)phenyl]-1-isopropylpyrazole-4-carboxamide, Isomer 2], the concentration for half-maximal inhibition (IC50) in assay [1] and in assay [2] was less than 100 nM throughout.
Take `CC(C(=O)Nc1cc(C(C)(C)C(F)(F)F)on1)c1ccc(-c2nn(C(C)C)c(N)c2C(N)=O)cc1` (single isomer, unassigned; isomer 1) [Example 81, 5-Amino-1-isopropyl-3-[4-(1-[[5-(1,1,1-trifluoro-2-methylpropan-2-yl)-1,2-oxazol-3-yl]carbamoyl]ethyl)phenyl]pyrazole-4-carboxamide, Isomer 1]: the IC50 in assay [1] and in assay [2] was less than 100 nM each time.
On to `CC(C(=O)Nc1cc(-c2ccc(Cl)cc2Cl)no1)c1ccc(-c2nn(C(C)C)c(N)c2C(N)=O)cn1` (single isomer, unassigned; isomer 2) [Example 94, 5-Amino-1-isopropyl-3-[6-[2-[[3-(2,4-dichlorophenyl)isoxazol-5-yl]amino]-1-methyl-2-oxo-ethyl]-3-pyridyl]pyrazole-4-carboxamide, Isomer 2], for which the IC50 in assay [1] and in assay [2] was less than 100 nM in each case.
As to `CCC(C)(C)c1cc(NC(=O)C(C)c2ccc(-c3nn(C(C)C)c(N)c3C(N)=O)cc2)no1` (single isomer, unassigned; isomer 2) [Example 52, 5-Amino-1-isopropyl-3-[4-(1-[[5-(2-methylbutan-2-yl)-1,2-oxazol-3-yl]carbamoyl]ethyl)phenyl]pyrazole-4-carboxamide, Isomer 2], the IC50 in assay [1] and in assay [2] was less than 100 nM in each case.
On to `CC(C(=O)Nc1cc(C(C)(C)C)sn1)c1ccc(-c2nn(C(C)C)c(N)c2C(N)=O)cc1` (single isomer, unassigned; isomer 2) [Example 80, 5-Amino-3-(4-[1-[(5-tert-butyl-1,2-thiazol-3-yl)carbamoyl]ethyl]phenyl)-1-isopropylpyrazole-4-carboxamide, isomer 2], for which the IC50 in assay [1] and in assay [2] was less than 100 nM throughout.
Take `CC(C(=O)Nc1cc(C(C)(C)C(F)(F)F)no1)c1ccc(-c2nn(C(C)C)c(N)c2C(N)=O)cn1` (single isomer, unassigned; isomer 2) [Example 90, 5-Amino-1-isopropyl-3-[6-[1-methyl-2-oxo-2-[[3-(2,2,2-trifluoro-1,1-dimethyl-ethyl)isoxazol-5-yl]amino]ethyl]-3-pyridyl]pyrazole-4-carboxamide, Isomer 2]: the IC50 in assay [1] and in assay [2] was less than 100 nM throughout.
As for `CC(C(=O)Nc1cc(C(C)(C)C(C)(F)F)on1)c1ccc(-c2nn(C(C)C)c(N)c2C(N)=O)nc1` (single isomer, unassigned; isomer 2) [Example 70, 5-Amino-3-[5-(1-[[5-(3,3-difluoro-2-methylbutan-2-yl)-1,2-oxazol-3-yl]carbamoyl]ethyl)pyridin-2-yl]-1-isopropylpyrazole-4-carboxamide, Isomer 2], the IC50 in assay [1] and in assay [2] was less than 100 nM throughout.
